According to US11918650B2, “Pharmaceutical composition comprising bispecific antibody constructs for improved storage and administration” (AMGEN INC., priority 2017, dated 2024):

Tests used:
[1] = system: CD19×CD3 bispecific antibody construct; assay: Preservative compatibility, percent HMW species by SEC-HPLC at pH 4; assay type: physicochemical; conditions: CD19×CD3 bispecific antibody construct 0.8 mg/mL, 10 mM glutamate pH 4.0, 9% sucrose, 0.01% polysorbate 80; preservative conc. of Table 4; 25° C., 14 days
Method: In order to investigate the compatibility of known preservatives with a representative bispecific antibody construct according to the present invention, CD19×CD3 bispecific antibody construct was formulated in the presence of respective known preservatives with parameters as set out in Table 4.
The chosen preservative concentrations reflected standard concentrations employed in the art. The respective formulations were stored at 25° C. for 14 days and examined on day 0, 1, 3, 7 and 14 by size exclusion chromatography (SEC-HPLC).

[2] = system: CD19×CD3 bispecific antibody constructs; assay: Denaturation assay (guanidinium chloride) with fluorescence detection; assay type: physicochemical; conditions: 2.5 hours at 25° C., pH 7; excitation 280 nm, emission 300 to 400 nm
Method: FIG. 4: Denaturation diagram of CD19×CD3 bispecific antibody constructs at a concentration of 1 mg/ml in presence or absence of preservative benzyl alcohol as determined by fluorescence spectrometry […].
Improved stability of a representative bispecific antibody construct of the present invention conferred by a preservative such as benzyl alcohol was further examined by a denaturation assay using fluorescence as detection means. Experimental conditions comprised guanidinium chloride as denaturant which concentration was plotted on the x-axis (see FIG. 4). Incubation time was 2.5 hours at 25° C. at near-physiologic pH 7. Fluorescence excitation was set to 280 nm and the emission scan was run from 300 to 400 nm. The percentile denaturated fraction was calculated from the fluoresces assay as standard in the art. The result can be seen in FIG. 4. The grey curve represents the formulation comprising benzyl alcohol, the black curve the formulation without preservative. […] This means that it takes more denaturant to unfold this region, i.e. the CD3 domain, which translates into improved stability conferred by the preservative.

[3] = Frozen stability at −20° C. over 4 weeks, HMW species (FIG. 9, 10); assay type: physicochemical; conditions: DLL3×CD3, pH 4
[4] = system: Escherichia coli (ATCC 8739); assay: Microbial challenge study in IV bags; assay type: cell-based; conditions: 20-25° C.
Method: (§1) This example was a microbial challenge study in support of CD19×CD3 bispecific antibody construct drug product (DP) administered via an intravenous (IV) bag. The study was performed to evaluate the ability of different concentrations (0.5%-0.74%) of benzyl alcohol (BeOH) to reduce or eliminate microbial growth in IV bags holding blinatumomab infusion solution containing benzyl alcohol, CD19×CD3 bispecific antibody construct DP, and intravenous solution stabilizer (IVSS) kept at 20-25° C. for up to 14 days.
(§2) The study was carried out to evaluate the growth of six different microorganisms in IV bags filled with 109 mL of CD19×CD3 bispecific antibody construct infusion solution containing benzyl alcohol (BeOH, at a final concentration of 0.0%, 0.5%, 0.6% or 0.74%), CD19×CD3 bispecific antibody construct DP, and IVSS. The prepared IV bags were held at 20-25° C. for up to 14 days.
(§3) The bacteria and yeast selected for the study are representative of known human pathogens commonly isolated from nosocomial infections. These microorganisms include Candida albicans (ATCC 10231), Enterobacter cloacae (ATCC 13047), Escherichia coli (ATCC 8739), Micrococcus luteus (ATCC 4698), Pseudomonas aeruginosa (ATCC 9027), and Staphylococcus aureus (ATCC 6538).
(§4) Test Articles: The test articles assessed in the study were blinatumomab infusion solution filled in IV bags containing 1.91 μg/mL conc. blinatumomab in a total volume of 109 mL/bag. The solution was made up by the addition of 2.2 mL IVSS, 16.8 mL of pooled reconstituted blinatumomab DP (210 μg), and a combined total volume of 90 mL of saline solution and saline solution with 0.9% benzyl alcohol (basaline). The four different levels of BeOH (0.0%, 0.5%, 0.6% and 0.74%) assessed in the study were achieved by adding different amounts of saline and basaline. For example, the bag with 0.0% BeOH (positive control) was prepared by adding 90 mL of saline, while the bag with 0.6% BeOH was prepared by adding 18 mL saline and 72 mL 0.9% bsaline, to the 2.2 mL IVSS and 16.8 mL blinatumomab DP. Refer to Appendix A for more details. Note that the illustration for 0.0% BeOH positive control in FIG. 1 (Schematic of IV Bag Preparation) of Appendix A of this report and in the same illustration in FIG. 4 of Appendix D inadvertently stated the final BeOH concentration to be 0.5%, instead of 0.0%. This is a typographic error and has no impact on the study outcome.
(§5) A total of 24 CD19×CD3 bispecific antibody construct infusion solution filled IV bags were assessed to evaluate the effect of four levels of benzyl alcohol on the aforementioned six different microorganisms (6×4=24). An approximate 1 mL of inoculum containing <1×10^4 CFU microbes was inoculated through the injection port into each bag that yielded an initial microbial load at ˜1×10^2 CFU/mL. After inoculation, the sampling port on the bag was cleaned with sterile IPA and the bag was mixed briefly and then incubated at 20-25° C.
(§6) Sampling and titration procedures: At each time point of 0-hour, 4-day, 8-day, 10-day, 12-day and 14 day, a 3 mL aliquot was collected from each assessed bag and titrated.
(§7) Sample titration was performed by membrane filtration in duplicate of 1 mL aliquots for each timed sample. Additional dilutions were performed to obtain countable results (<300 CFU/plate).

[5] = system: Candida albicans (ATCC 10231); assay: Microbial challenge study in IV bags; assay type: cell-based; conditions: all three levels of BeOH (0.5%, 0.6%, 0.74%) in blinatumomab infusion solution; 20-25° C.
Method: as §1, §2, §3, §4, §5, §6, §7

[6] = system: Staphylococcus aureus (ATCC 6538); assay: Microbial challenge study in IV bags; assay type: cell-based; conditions: 20-25° C.
Method: as §1, §2, §3, §4, §5, §6, §7

[7] = system: Pseudomonas aeruginosa (ATCC 9027); assay: Microbial challenge study in IV bags; assay type: cell-based; conditions: 20-25° C.
Method: as §1, §2, §3, §4, §5, §6, §7

[8] = system: Micrococcus luteus (ATCC 4698); assay: Microbial challenge study in IV bags; assay type: cell-based; conditions: 20-25° C.
Method: as §1, §2, §3, §4, §5, §6, §7

[9] = system: Enterobacter cloacae (ATCC 13047); assay: Microbial challenge study in IV bags; assay type: cell-based; conditions: 20-25° C.
Method: as §1, §2, §3, §4, §5, §6, §7

[10] = system: CDR-H3 region (YISYW) of anti-CD3 domain; assay: Hydrogen-deuterium exchange (HDX) mass spectrometry, effects of citrate and benzyl alcohol; assay type: physicochemical; conditions: addition to Tris-phosphate pH 6.0, 50 mM citrate, 0.9% benzyl alcohol
Source text: Hydrogen-deuterium exchange (HDX) is a chemical reaction in which a covalently bonded hydrogen atom is replaced by a deuterium atom, or vice versa. It can be applied most easily to exchangeable protons and deuterons, where such a transformation occurs in the presence of a suitable deuterium source, without any catalyst. The method gives information about the solvent accessibility of various parts of the molecule, and thus the tertiary structure of the protein.
Model anti-FAPα domain, isolated anti-CD3 domain (I2C, as typically used throughout all example bispecific antibody constructs), CD33×CD3 bispecific antibody construct and EGFRvIII×CD3 bispecific antibody construct were examined. For FAPα, anti-CD3 domain, and CD33×CD3 bispecific antibody construct, the experimental procedure was same. Firstly, the protein samples were dialyzed into Tris-phosphate buffer (35 mM Tris, 17.5 mM phosphate, pH 6.0) and (35 mM Tris, 17.5 mM phosphate, 50 mM citrate, pH 6.0), respectively. The protein concentration was adjusted to 0.3 mg/mL after dialysis. […] Thirdly, the HDX reaction was quenched after 10s, 1 min, 10 min, 1 hr, 4 hr, and 12 hr, and then the quenched protein samples were analyzed by mass spectrometry. […] Thirdly, the HDX reaction was quenched after 10s, 10 min, 2 hr, 8 hr, 16 hr, 24 hr, and then the quenched protein samples were analyzed by mass spectrometry. […]

[11] = 0.5%, 0.6% and 0.74% BeOH in blinatumomab infusion solution, inoculum 100 CFU/mL
[12] = all three assessed concentrations (0.5%, 0.6%, 0.74%), up to 14 days
[13] = 0.5% or 0.6% BeOH in blinatumomab infusion solution
[14] = 0.74% BeOH in blinatumomab infusion solution

C[CH2][Hg][S]c1ccccc1C(=O)[O-].[Na+] [Thimerosal, thimerosal]
percent high molecular weight (HMW) species over time [1]: slight increase in HWM over time

OCc1ccccc1 [benzyl alcohol]
denaturation curve (denaturated fraction vs guanidinium chloride) with benzyl alcohol versus without preservative [2]: shift to the right in the bottom portion of the curve | benzyl alcohol concentration at which stabilizing effect on frozen stability is best [3]: above 0.1% | day from which no E. coli was recoverable [4, 11]: 10 days | growth of E. coli [4, 12]: completely inhibited | day on which challenged C. albicans was unrecoverable [5]: 8 days | day on which challenged S. aureus inoculum became unrecoverable [6, 13]: 8 days | day on which challenged S. aureus inoculum became unrecoverable [6, 14]: 4 days | day from which no P. aeruginosa was recoverable [7, 11]: 4 days | growth of P. aeruginosa [7, 12]: completely inhibited | day on which challenged M. luteus was unrecoverable [8, 13]: 14 days | day on which challenged M. luteus was unrecoverable [8, 14]: 8 days | day from which no E. cloacae was recoverable [9, 11]: 10 days | growth of E. cloacae [9, 12]: completely inhibited | conformational dynamics of the region of residues 366-370 (YISYW) versus formulation of Tris-phosphate [10]: increases the conformational dynamics of this region

O=C(O)CC(O)(CC(=O)O)C(=O)O [citrate]
conformational dynamics of the region of residues 366-370 (YISYW) versus formulation of Tris-phosphate [10]: reduces the conformational dynamics of this region

COC(=O)c1ccc(O)cc1 [methylparabene, methylparaben]
percent high molecular weight (HMW) species over time [1]: decrease in the percent high molecular weight (HMW) species over time

Oc1ccccc1 [phenol]
percent high molecular weight (HMW) species over time [1]: HMW values overall remain constant
